How the values were obtained:
MDA-MB-231 = assay: Antiproliferative activity against human MDA-MB-231 cells incubated for 48 hrs by MTT assay; assay type: functional, cell-based; details: MDA-MB-231, 48 h
A549 = assay: Antiproliferative activity against human A549 cells incubated for 48 hrs by MTT assay; assay type: functional, cell-based; details: A549, 48 h
HepG2 = assay: Antiproliferative activity against human HepG2 cells incubated for 48 hrs by MTT assay; assay type: functional, cell-based; details: HepG2, 48 h
HCT-116 = assay: Antiproliferative activity against human HCT116 cells incubated for 48 hrs by MTT assay; assay type: functional, cell-based; details: HCT-116, 48 h
HeLa = assay: Antiproliferative activity against human HeLa cells incubated for 48 hrs by MTT assay; assay type: functional, cell-based
[1] = Inhibition of porcine brain tubulin polymerization measured every 60 secs for 90 mins by DAPI dye based fluorescence assay; design: species or system Sus scrofa

SMILES | IC50 (MDA-MB-231) | IC50 (A549) | IC50 (HepG2) | IC50 (HCT-116) | IC50 (HeLa) | IC50 [1]
COc1ccc(N(C)c2ccnc(Cl)n2)cc1OCC[Se]C#N | 2.75 µM | 0.463 µM | 1.67 µM | 1.22 µM | 0.436 µM | 
COc1ccc(N(C)c2cc(C)nc(C)n2)cc1[N+](=O)[O-] | 3.44 µM | 3.27 µM | 2.98 µM | 4.67 µM | 3.72 µM | 
COc1ccc(N(C)c2cc(C)nc(C)n2)cc1Cl | 1.9 µM | 0.78 µM | 0.787 µM | 1.19 µM | 0.316 µM | 
C[Se]c1ccc(N(C)c2cc(C)nc(C)n2)cc1 | 0.321 µM | 0.218 µM | 0.198 µM | 0.465 µM | 0.138 µM | 
COc1ccc(N(C)c2cc(C)nc(C)n2)cc1 | 3.65 µM | 0.277 µM | 0.824 µM | 1.32 µM | 0.322 µM | 
COc1ccc(N(C)c2ccnc(Cl)n2)cc1OCCCCBr | 0.992 µM | 0.591 µM | 0.168 µM | 1.14 µM | 0.307 µM | 
COc1ccc(N(C)c2ccnc(Cl)n2)cc1F | 1.28 µM | 0.651 µM | 0.844 µM | 0.914 µM | 0.241 µM | 
COc1ccc(N(C)c2ccnc(Cl)n2)cc1OCCCCC[Se]C#N | > 10 µM | > 10 µM | > 10 µM | > 10 µM | > 10 µM | 
COc1ccc(N(C)c2ccnc(Cl)n2)cc1[N+](=O)[O-] | 8.12 µM | 3.78 µM | 6.12 µM | 4.7 µM | 4.73 µM | 
COc1ccc(N(C)c2nc(C)nc3ccccc23)cc1 [VERUBULIN] |  | 0.004 µM |  | 0.005 µM | 0.006 µM | 2.74 µM
COc1ccc(N(C)c2ccnc(Cl)n2)cc1OCCCC[Se]C#N | > 10 µM | > 10 µM | > 10 µM | > 10 µM | > 10 µM | 
COc1ccc(N(C)c2ccnc(Cl)n2)cc1OCCCCCBr | > 10 µM | 9.71 µM | > 10 µM | > 10 µM | 7.08 µM | 
COc1ccc(N(C)c2ccnc(Cl)n2)cc1O | 0.833 µM | 0.381 µM | 0.464 µM | 0.422 µM | 0.096 µM | 6.11 µM
COc1ccc(N(C)c2ccnc(Cl)n2)cc1OCCC[Se]C#N | 1.49 µM | 3.71 µM | 5.15 µM | 3.92 µM | 4.71 µM | 
COc1ccc(N(C)c2ccnc(Cl)n2)cc1OCCBr | 6.62 µM | 4.64 µM | 7.72 µM | 5.67 µM | 3.31 µM | 
COc1ccc(N(C)c2cc(C)nc(C)n2)cc1F | 2.79 µM | 0.632 µM | 2.06 µM | 0.584 µM | 0.471 µM | 
COc1ccc(N(C)c2ccnc(Cl)n2)cc1 | 2.81 µM | 0.611 µM | 2.12 µM | 1.46 µM | 0.917 µM | 
Cc1cc(N(C)c2ccc([Se]C#N)cc2)nc(C)n1 | 0.614 µM | 0.207 µM | 0.155 µM | 0.245 µM | 0.252 µM | 
COc1ccc(N(C)c2ccnc(Cl)n2)cc1OCCCBr | 1.28 µM | 0.862 µM | 1.24 µM | 1.97 µM | 0.307 µM | 
COc1ccc(N(C)c2ccnc(Cl)n2)cc1Cl | 1.38 µM | 0.621 µM | 2.63 µM | 1.17 µM | 0.517 µM | 

From ChEMBL document CHEMBL4190378, “Synthesis and evaluation of new 2-chloro-4-aminopyrimidine and 2,6-dimethyl-4-aminopyrimidine derivatives as tubulin polymerization inhibitors” (Bioorg Med Chem Lett, 2018)
